“Also recorded” adds a separate entry of the source. No end group written: not given here.
How the values were obtained:
[1] = tested on: monoclonal anti-CS / CS protein of P. knowlesi; experiment: Reactivity of synthetic peptides with monoclonal anti-CS (antibody not specified); assay type: binding; conditions: antibody not given; compared with (1-12) or (5-12) where stated
Protocol: Four monoclonal antibodies (2G3, 5H8, 8B8, and 8E11) were used in immunoactivity testing of synthesized shorter length analogs of the 12-peptide. The purpose was further localization and identification of the epitope contained therein.
After synthesis, cleavage and purification, the peptides were tested for reactivity with monoclonal anti-CS, preferably partially purified. The anti-CS used in these tests were produced by ascites tumor induction using hybridoma cells resulting from the fusion of plasmacytoma cells with spleen cells of a mouse immunized with the parasite, as described by Cochrane, A. H. et al, supra, and as disclosed in the Malaria Vaccine patent application.
The immunoactivity of the synthetic peptides was evaluated by measuring their ability to inhibit the reaction between the monoclonal anti-CS and the antigen (CS protein). […]
Competitive inhibition of the antigen-antibody reaction by the thus synthesized peptides was measured by the following radioimmunoassay. […]
(§1) All synthetic peptides were dissolved in PBS at a concentration of 10 mM and subsequently diluted serially in PBS-1% BSA/0.1% NaN3. […] The microtiter plates were incubated at 4° C. for 18 hours, washed 5 times with PBS-BSA-NaN3 and then the wells were counted for well-bound antibody. […]

[2] = tested on: binding of monoclonal antibody 2G3 to the CS protein P. knowlesi; conditions: cited from earlier work
[3] = tested on: binding of radiolabelled 8E11 to the CS protein of P. knowlesi; experiment: Inhibition radioimmunoassay: binding of radiolabelled monoclonal antibody 8E11 to P. knowlesi CS protein
Protocol: (§2) The immunoactivity of the synthetic peptides was evaluated by measuring their ability to inhibit the reaction between the monoclonal anti-CS and the antigen (CS protein). Antigen was purified from sporozoites, as disclosed in the Malaria Vaccine patent application and as also described by Vanderberg, supra, and Zavala, F., et al, supra, 1982, is preferably employed using ^125 I-labeled antibody.
(§3) Competitive inhibition of the antigen-antibody reaction by the thus synthesized peptides was measured by the following radioimmunoassay. P. knowlesi sporozoite CS protein was used as the antigen.
(§4) (a) Preparation of antigen: 3,000 purified P. knowlesi sporozoites (Vanderberg et al., Military Medicine 134:1183, 1969) in 50 μl of phosphate buffered saline (PBS) containing protease inhibitors, were delivered to the bottom of polystyrene (Falcon 3911 plate, B-D and Co., Oxnard, Calif.) microtiter plates, which were sealed with parafilm and frozen at -70° C. for at least ten minutes. The plates were then allowed to defrost slowly at room temperature. This procedure was repeated six times. Then the plates were incubated at 4° C. overnight, and at 56° C. for five minutes. The P. knowlesi extract was then removed from the wells and these were washed three times with PBS containing 1% bovine serum albumin (BSA) and 0.1% NaN3. The wells were then filled with PBS-BSA-NaN3 for a few hours at room temperature.
(§5) All synthetic peptides were dissolved in PBS at a concentration of 10 mM and subsequently diluted serially in PBS-1% BSA/0.1% NaN3. Twenty-five μl of serial dilutions of each peptide were added to the wells coated with antigen. Control wells received only the diluent. Then, 25 μl of the ^125 I-labelled monoclonal antibody (about 5-10ng, 10 ^5 cpm) were added to the wells. The microtiter plates were incubated at 4° C. for 18 hours, washed 5 times with PBS-BSA-NaN3 and then the wells were counted for well-bound antibody. (LKB 1260 Muilti-gamma γ-counter LKB Instruments, Inc., Gaithersburg, Md.). […]

[4] = tested on: binding of monoclonal antibody 8B8 to the CS protein P. knowlesi; experiment: Inhibition radioimmunoassay: binding of 125I-labelled monoclonal antibody 8B8 to P. knowlesi CS protein; conditions: text summary of FIG. 4 / Table 3
Protocol: as §2, §3
(§6) (a) Preparation of antigen: 3,000 purified P. knowlesi sporozoites (Vanderberg et al., Military Medicine 134:1183, 1969) in 50 μl of phosphate buffered saline (PBS) containing protease inhibitors, were delivered to the bottom of polystyrene (Falcon 3911 plate, B-D and Co., Oxnard, Calif.) microtiter plates, which were sealed with parafilm and frozen at -70° C. for at least ten minutes. The plates were then allowed to defrost slowly at room temperature. This procedure was repeated six times. […]
as §1

[5] = tested on: binding of monoclonal antibody 5H8 to the CS protein P. knowlesi; experiment: Inhibition radioimmunoassay: binding of 125I-labelled monoclonal antibody 5H8 to P. knowlesi CS protein; conditions: summary of FIGS. 1, 3 / Table 3
Protocol: as §2, §3, §6, §1

[6] = tested on: binding of monoclonal antibody 2G3 to the CS protein P. knowlesi; experiment: Inhibition radioimmunoassay: binding of 125I-labelled monoclonal antibody 2G3 to P. knowlesi CS protein; conditions: for Inhibitory activity on binding of monoclonal antibody 2G3 to CS protein (in words): FIGS. 1, 2 / Table 3
Protocol: as §2, §3, §4, §5

[7] = tested on: monoclonal antibody 8A8 against the surface protein of P. knowlesi; experiment: Binding of 125I-labelled tetraeicosapeptide to Sepharose beads bearing monoclonal antibody 8A8; design: species or system mouse
monoclonal antibody 6B8 = experiment: Binding of 125I-labelled tetraeicosapeptide to Sepharose beads bearing monoclonal antibody 6B8; design: species or system mouse; conditions: other experiments, not shown
From the text: (§7) Monoclonal antibodies against surface antigens of sporozoites of the simian malaria parasite Plasmodium knowlesi were produced by fusion of plasmacytoma cells with spleen cells of a mouse immunized witn the parasite as previously described by Cochrane et al., supra., (1982) and described in detail in the Malaria Vaccine patent application. The monoclonal antibodies (four idiotypes: 2G3, 8B8, 5H8 and 8E11 were partially purified from ascites of mice bearing hybridomas by 50% ammonium sulphate precipitation followed by molecular sieve chromatography on Sephadex G-200.
(§8) To determine whether the 24-peptide is recognized by all monoclonal antibodies, 5 mg of purified monoclonal antibodies were bound to 1 ml of CNBr activated Sepharose 4B (Pharmacia Fine Chemicals, Piscataway, N.J., U.S.A.) according to instructions of the manufacturer. The 24 amino acid peptide was radiolabelled with ^125 I with the Boulton-Hunter reagent, to a specific activity of approximately 10^4 cpm/μg. Twenty μl of beads bearing the different antibodies were incubated for 60 minutes at room temperature in the presence of 100 μl of PBS-BSA containing either 1 μg of the radiolabelled peptide alone or radiolabelled peptide in the presence of […] of cold tetraeicosapeptide. The beads were then washed by centrifugation with PBS-BSA and counted in a gamma-counter.

[8] = tested on: monoclonal antibody 8B8 against the surface protein of P. knowlesi; experiment: Binding of 125I-labelled tetraeicosapeptide to Sepharose beads bearing monoclonal antibody 8B8; design: species or system mouse
From the text: as §7, §8

[9] = tested on: monoclonal antibody 2G3 against the surface protein of P. knowlesi; experiment: Binding of 125I-labelled tetraeicosapeptide to Sepharose beads bearing monoclonal antibody 2G3; design: species or system mouse
From the text: as §7, §8

[10] = tested on: monoclonal antibody (3D11) against the surface protein of P. berghei; experiment: Binding of 125I-labelled tetraeicosapeptide to control beads bearing monoclonal antibody 3D11
Protocol: as §8

monoclonal antibody 8E11 = experiment: Binding of 125I-labelled tetraeicosapeptide to Sepharose beads bearing monoclonal antibody 8E11; design: species or system mouse; conditions: other experiments, not shown
From the text: as §7, §8

[11] = tested on: monoclonal antibody 5H8 against the surface protein of P. knowlesi; experiment: Binding of 125I-labelled tetraeicosapeptide to Sepharose beads bearing monoclonal antibody 5H8; design: species or system mouse
From the text: as §7, §8

[12] = 8A8 beads in PBS-BSA + excess of cold tetraeicosapeptide
[13] = 8B8 beads in PBS-BSA + excess of cold tetraeicosapeptide
[14] = 2G3 beads in PBS-BSA + excess of cold tetraeicosapeptide
[15] = control 3D11 beads suspended in PBS-BSA
[16] = 5H8 beads in PBS-BSA + excess of cold tetraeicosapeptide

## QAQGDGANAGQP-NH2 [Peptide 1-12, NH2 Gln-Ala-Gln-Gly-Asp-Gly-Ala-Asn-Ala-Gly-Gln-ProCONH2]
[1]
  Reactivity with monoclonal anti-CS (in words): very efficient inhibitors
[2]
  Reactivity with monoclonal anti-CS 2G3 (previous work): very effectively inhibited
[3]; at a concentration of 10^-2 M
  Inhibitory effect on binding of 8E11 to CS protein at a fixed concentration: no appreciable inhibitory effect
[4]
  Inhibitory activity on binding of monoclonal antibody 8B8 to CS protein (in words): strongly inhibitory
[5]
  Inhibitory activity on binding of monoclonal antibody 5H8 to CS protein (in words): almost identical; also recorded: strongly inhibitory
[6]
  Inhibitory activity on binding of monoclonal antibody 2G3 to CS protein (in words): almost identical; also recorded: strongly inhibitory
[6]; head prints (×5), radiolabeled 2G3, CS protein P. knowlesi immobilized on wells, 4° C. for 18 hours
  Molar concentration of peptide (×5) necessary for 50% inhibition of binding of monoclonal antibody 2G3: 10^-13 Molar

## H-QAQGDGANAGQPQAQGDGANAGQP-NH2 [Peptide 1-24]
[1]
  Reactivity with monoclonal anti-CS (in words): reacted
[7]; [12]
  % of input of radiolabelled tetraeicosa peptide that bound to the beads: 0.2 % of input
  cpm of radiolabelled tetraeicosa peptide that bound to the beads: 25 cpm
[7]; 8A8 beads suspended in PBS-BSA
  % of input of radiolabelled tetraeicosa peptide that bound to the beads: 10.3 % of input
  cpm of radiolabelled tetraeicosa peptide that bound to the beads: 1092 cpm
[2]
  Reactivity with monoclonal anti-CS 2G3 (previous work): interacted simultaneously with two molecules of 2G3
[3]
  Inhibition of binding of antibody 8E11 to CS protein (in words): inhibited
[3]; FIG. 1, read-out: Concentration giving about 50% inhibition of binding of radiolabelled 8E11 to the CS protein
  IC50: ~10 µM
Monoclonal antibody 6B8
  Binding of radiolabelled (1-24) to beads bearing 6B8 (in words): Analogous results
[8]; [13]
  % of input of radiolabelled tetraeicosa peptide that bound to the beads: 0.2 % of input
  cpm of radiolabelled tetraeicosa peptide that bound to the beads: 20 cpm
[8]; 8B8 beads suspended in PBS-BSA
  % of input of radiolabelled tetraeicosa peptide that bound to the beads: 27.8 % of input
  cpm of radiolabelled tetraeicosa peptide that bound to the beads: 3155 cpm
[9]; [14]
  % of input of radiolabelled tetraeicosa peptide that bound to the beads: 0.2 % of input
  cpm of radiolabelled tetraeicosa peptide that bound to the beads: 25 cpm
[9]; 2G3 beads suspended in PBS-BSA
  % of input of radiolabelled tetraeicosa peptide that bound to the beads: 25.8 % of input
[9]; 2G3 beads suspended in PBS-BSA, 1 μg radiolabelled peptide
  cpm of radiolabelled tetraeicosa peptide that bound to the beads: 2922 cpm
[10]; control 3D11 beads in PBS-BSA + excess of cold tetraeicosapeptide
  cpm of radiolabelled tetraeicosa peptide that bound to the beads: 0 cpm
[10]; [15]
  % of input of radiolabelled tetraeicosa peptide that bound to the beads: 0.2 % of input
  cpm of radiolabelled tetraeicosa peptide that bound to the beads: 25 cpm
Monoclonal antibody 8E11
  Binding of radiolabelled (1-24) to beads bearing 8E11 (in words): Analogous results
[5]
  Inhibitory activity on binding of monoclonal antibody 5H8 to CS protein (in words): almost identical
[6]
  Inhibitory activity on binding of monoclonal antibody 2G3 to CS protein (in words): almost identical
[11]; [16]
  % of input of radiolabelled tetraeicosa peptide that bound to the beads: 0.2 % of input
  cpm of radiolabelled tetraeicosa peptide that bound to the beads: 20 cpm
[11]; 5H8 beads suspended in PBS-BSA
  % of input of radiolabelled tetraeicosa peptide that bound to the beads: 19.7 % of input
  cpm of radiolabelled tetraeicosa peptide that bound to the beads: 2332 cpm

— patent publication US4769235A, “Immunodominant epitope of the circumsporozoite surface protein” (New York University, priority 1984, dated 1988)
